The target of experiment [1] is recombinant HIV 1 RT L100I (Human immunodeficiency virus type 1 group M subtype B, UniProt P03366, L699I). The experiment can be described thus: RT inhibition assay for non-nucleoside inhibitors (modified HS Lenti RT assay, RT Reaction mixture). It counts as biochemical. The following applies: 1.7 fg/well, 19 hours, read-out: IC50 of indicated inhibitor in RT assay. The text has this:
(§1) As template for the mutations was used the pETRT expression vector, which was constructed from the BH10 isolate.

Experiment [2] has as its target recombinant HIV 1 RT wild type BH10 (Human immunodeficiency virus type 1 group M subtype B, UniProt P03366). Described as above. The following applies: 1.7 fg/well, 19 hours, read-out: IC50 of indicated inhibitor in RT assay. It counts as biochemical.
Excerpt: as §1

For experiment [3], the target named is recombinant HIV 1 RT K103N (Human immunodeficiency virus type 1 group M subtype B, UniProt P03366, K702N). The description is as above. The following applies: 1.7 fg/well, 19 hours, read-out: IC50 of indicated inhibitor in RT assay. It counts as biochemical.
Excerpt: as §1

Experiment [4] concerns the target recombinant HIV 1 RT L100I/K103N (Human immunodeficiency virus type 1 group M subtype B, UniProt P03366, K702N/L699I). The description is as above. It counts as biochemical. The following applies: 1.7 fg/well, 19 hours, read-out: IC50 of indicated inhibitor in RT assay.
Excerpt: as §1

Experiment [5] has as its target HIV RT recovered from patient plasma (Human immunodeficiency virus type 1, UniProt P03366). Put plainly: Susceptibility to NNRTIs using plasma derived RTs. It counts as biochemical, HIV-1. The following applies: 1.7 fg/well. An excerpt: Place them in a Nalgene box.
Suck the gels dry after each wash. […] Refit the upper part of the device.

Where only a bound is given, the exact number is not on record here.

In the case of `CC(C)Nc1cccnc1N1CCN(C(=O)c2cc3cc(NS(C)(=O)=O)ccc3[nH]2)CC1` [Delaviridine, 1-(5-methanesulphonamido-1H-indol-2-yl-carbonyl)-4-[3-(1-methylethyl-amino)pyridinyl]piperazine monomethane sulphonate], the half-inhibitory concentration (IC50) in experiment [1] was 9.5 µM; in experiment [2], 0.5 µM; in experiment [3], 3 µM; in experiment [4], above 100 µM; in experiment [5] (IC50, plasma RT of patient code 1177), 4.54 µM; in experiment [5] (IC50, plasma RT of patient code 1412), 3.6 µM. For the same compound, the IC50 in experiment [5] (IC50, plasma RT of patient code 1424) was 8.21 µM; in experiment [5] (IC50, plasma RT of patient code 1572), 9.54 µM; in experiment [5] (IC50, plasma RT of patient code 1639) it was 12.7 µM; in experiment [5] (IC50, plasma RT of patient code 1885), 8.97 µM; in experiment [5] (plasma RT of patient code 3980 (V179T/A/I)), 7.51 µM.

For the origin of these results see patent publication US7875422B2, “Viral drug susceptibility testing” (Cavidi AB, priority 2001, dated 2011).
